“Also recorded” adds a separate entry of the source. Read-outs that look alike come from different tables or passages of the source. Marks after values point to notes of the source that are not given here.
Legend:
D3R [1] = biological target: T1, D3R (Homo sapiens, UniProt P35462); parameters: method as in PMID 24061855, PMID 19331412; conditions: R22 analogues, linker length; cited from earlier work
D1R [2] = biological target: T2, D1R (Homo sapiens, UniProt P21728); test: HTRF competitive binding screening (NDF) at D1R carrier cells; conditions: 10 µM, n = 4, fluorescence decrease normalized to the control
T2 sequence (P21728 whole entry): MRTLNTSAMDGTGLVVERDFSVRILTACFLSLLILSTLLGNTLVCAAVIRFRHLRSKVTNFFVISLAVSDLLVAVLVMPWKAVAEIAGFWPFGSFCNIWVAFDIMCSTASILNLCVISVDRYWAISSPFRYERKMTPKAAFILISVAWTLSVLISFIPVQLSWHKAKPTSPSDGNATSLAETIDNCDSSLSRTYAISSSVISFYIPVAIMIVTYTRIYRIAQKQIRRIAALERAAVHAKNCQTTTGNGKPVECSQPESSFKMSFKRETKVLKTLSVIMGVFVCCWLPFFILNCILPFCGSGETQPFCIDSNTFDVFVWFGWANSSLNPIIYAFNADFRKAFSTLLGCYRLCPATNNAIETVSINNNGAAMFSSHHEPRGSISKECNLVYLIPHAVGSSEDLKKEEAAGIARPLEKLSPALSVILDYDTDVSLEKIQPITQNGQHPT
Experimental: (§1) All HTRF assays were performed using an HTRF-compatible plate reader (model Tecan Spark (Tecan Group, Männedorf, Switzerland)). The respective settings were specifically modified and optimized for the determination of D2R ligand-binding affinities. Binding affinities were determined using the same settings for measurements with D1R and D3R carrier cells. […] Fluorophores were excited at 320 nm. A dichroic 510 mirror was used, while lag and integration times of 100 and 400 µs were applied, respectively. Flashes were set to 75. Electronic gain was automatically optimized, while the z-position was optimized based on the well with the highest expected signal. […] The first plate was used to determine the gain and the z-position. Subsequently, the determined values were set manually for the second plate to enable direct comparison between the different plates.
(§2) The cells used for the subsequent screening and detailed investigation of D1R and D3R ligands were acquired from PerkinElmer/cisbio (Waltham, MA, USA; Tag-lite Dopamine D1 or D3a-labeled Cells, ready-to-use (transformed and labeled), 200 tests; C1TT1D1 and C1TT1D3A, respectively). The cells were stored in liquid nitrogen until further use. Fluorescent-labelled ligands (Dopamine D2 Receptor red antagonist Fluorescent Ligand (L0002RED), stored at −20 °C and Dopamine D1 Receptor green antagonist (L0031GRE), stored at −20 °C), assay buffer (5Xconcentrate Tag-lite Buffer (TLB), 100 mL, stored at +4 °C; LABMED), and 96-well plates (HTRF 96-well low-volume white plate; 66PL96005) required for the in vitro assay were also acquired from PerkinElmer/cisbio. The assay was conducted according to the standard operation protocol (SOP) available from PerkinElmer/cisbio. The 96-well plates were incubated at room temperature for 2 h. The 96-well plates were read as described in Section 2.10. The respective concentrations of the dilution series were performed in triplicates. In total, Kd determination was performed twice.
(§3) The investigated compounds were taken from a previous pharmacophore-based virtual screening study described in Zell et al.. The activities of all compounds were investigated via a competitive binding (in comparison with a fluorescence-labeled ligand) of the respective compounds at D1R/D3R, utilizing an HTRF assay using a screening concentration of 10 µM.

D3R [3] = biological target: T1, D3R; test: HTRF competitive binding screening (NDF) at D3R carrier cells; conditions: 10 µM, n = 4, fluorescence decrease normalized to the control
Experimental: as §1, §2, §3

D2R [4] = biological target: T3, D2R (Homo sapiens, UniProt P14416); conditions: 10 µM, n = 4, normalized to the control; cited from earlier work
T3 construct: expressed in transfected cells; host or cells: D2R carrier cells (not described here)
T3 sequence (P14416 whole entry): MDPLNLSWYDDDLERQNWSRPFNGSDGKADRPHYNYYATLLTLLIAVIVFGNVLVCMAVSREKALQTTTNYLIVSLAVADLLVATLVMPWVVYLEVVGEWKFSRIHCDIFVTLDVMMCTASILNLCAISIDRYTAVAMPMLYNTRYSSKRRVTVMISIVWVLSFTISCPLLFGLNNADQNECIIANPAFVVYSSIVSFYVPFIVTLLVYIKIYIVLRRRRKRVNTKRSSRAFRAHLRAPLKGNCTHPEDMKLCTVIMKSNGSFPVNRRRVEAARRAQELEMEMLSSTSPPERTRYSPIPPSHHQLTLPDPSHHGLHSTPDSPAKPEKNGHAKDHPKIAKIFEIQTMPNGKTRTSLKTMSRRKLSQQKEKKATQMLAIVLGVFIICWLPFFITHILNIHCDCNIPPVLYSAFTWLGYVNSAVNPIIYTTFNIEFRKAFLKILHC

D1R [5] = biological target: T2, D1R; test: HTRF Ki determination at D1R; type: binding; conditions: n = 6, ± SD; n.d. = not determinable (highest concentration 100 µM)
Experimental: as §1, §2
(§4) The Ki was determined in duplicates following the SOP available from PerkinElmer/cisbio and as described in Section 2.10.
(§5) Saturation binding curves were processed and visualized in GraphPad Prism 8 (Nonlinear regression (curve fit), One site—Fit logIC50 was performed using GraphPad Prism version 8.2.1 for Windows, GraphPad Software, San Diego. CA, USA). Molecular docking was performed in GOLD 5.8.0 (CCDC, Cambridge, United Kingdom). […] Two-dimensional structures of all shown compounds were generated using ChemDraw version 19.0 (PerkinElmer, Waltham, MA, USA).

D2R [6] = biological target: T3, D2R; test: HTRF Ki determination at D2R; type: binding; conditions: for Selectivity D1R/D2R (Ki fold-difference): Ki assumed ≥100 µM where n.d.
Experimental: as §1
The characterization of the D2R carrier cells is detailed in [42].
as §4, §5

D3R [7] = biological target: T1, D3R; test: HTRF Ki determination at D3R; type: binding; conditions: for Selectivity D1R/D3R (Ki fold-difference) / Selectivity D2R/D3R (Ki fold-difference): Ki assumed ≥100 µM where n.d.
Experimental: as §1
The cells used for the subsequent screening and detailed investigation of D1R and D3R ligands were acquired from PerkinElmer/cisbio (Waltham, MA, USA; Tag-lite Dopamine D1 or D3a-labeled Cells, ready-to-use (transformed and labeled), 200 tests; C1TT1D1 and C1TT1D3A, respectively). The cells were stored in liquid nitrogen until further use. […] The assay was conducted according to the standard operation protocol (SOP) available from PerkinElmer/cisbio. The 96-well plates were incubated at room temperature for 2 h. The 96-well plates were read as described in Section 2.10. The respective concentrations of the dilution series were performed in triplicates. In total, Kd determination was performed twice.
as §4, §5

D2R [8] = biological target: T3, D2R; parameters: method as in PMID 35889317; conditions: n = 6, ± SD; values from previous experiments; cited from earlier work
D1R [9] = conditions: radio-ligand binding, cited from earlier work
D2R [10] = conditions: radio-ligand binding, cited from earlier work
D3R [11] = conditions: radio-ligand binding, cited from earlier work
[12] = n = 6, ± SD, n.d. = not determinable (highest concentration 100 µM)
[13] = Table S3 D2like-selective dataset, ref ChEMBL [56,69,72-106]
[14] = Table S4 D3R-selective dataset, ref ChEMBL [53,56,62-118]

T1 sequence (P35462 whole entry): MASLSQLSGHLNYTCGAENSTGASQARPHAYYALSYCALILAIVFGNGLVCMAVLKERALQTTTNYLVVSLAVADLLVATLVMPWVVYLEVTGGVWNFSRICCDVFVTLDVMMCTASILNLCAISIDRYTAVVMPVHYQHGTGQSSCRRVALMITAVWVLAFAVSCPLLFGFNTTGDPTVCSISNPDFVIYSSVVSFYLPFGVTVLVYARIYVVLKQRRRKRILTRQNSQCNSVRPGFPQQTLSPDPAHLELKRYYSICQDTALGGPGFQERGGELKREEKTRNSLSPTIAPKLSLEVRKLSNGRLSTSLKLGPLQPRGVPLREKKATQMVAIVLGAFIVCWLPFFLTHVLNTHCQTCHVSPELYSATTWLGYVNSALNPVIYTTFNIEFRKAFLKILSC

Compound | Normalized Decrease in Fluorescence (NDF) ± SD, D1R (D1R [2]) | Normalized Decrease in Fluorescence (NDF) ± SD, D3R (D3R [3]) | Normalized Decrease in Fluorescence (NDF) ± SD, D2R (D2R [4]) | Ki (D1R [5]) | Selectivity D1R/D2R (Ki fold-difference) (D2R [6]) | Selectivity D1R/D3R (Ki fold-difference) (D3R [7]) | Selectivity D2R/D3R (Ki fold-difference) (D3R [7]) | Ki (D3R [7]; n = 6, ± SD) | Ki (D2R [8]) | other results
O=C(NCCCCN1CCN(c2cccc(Cl)c2Cl)CC1)c1cc2ccccc2[nH]1 [C4 analogue] | – | – | – | – | – | – | – | – | – | D2R/D3R-selectivity fold-difference (D3R [1]): 45.7
CN1CCc2cccc3c2[C@H]1Cc1ccc(O)c(O)c1-3 [Compound 1, apomorphine, reference compound] | 3.47 ± 1.04 | 3.82 ± 1.32 | 9.44 ± 5.97 | – | – | – | – | – | – | –
CN1CCN(C2Cc3ccc(O)cc3Sc3ccc(Cl)cc32)CC1 (centres unmarked) [Compound 2] | 5.46 ± 1.97 | 4.16 ± 1.08 | 40.41 ± 1.39 | 9 ± 2 nM | 1.95 | 3.23 | 1.66 | 3 ± 1 nM | 5 ± 2 nM | –
NS(=O)(=O)c1ccc(CCNCc2ccc(-c3cc(Cl)ccc3Cl)o2)cc1 [Compound 3] | 1.78 ± 1.35 | 3.96 ± 1.10 | 3.99 ± 2.58 | – | >21.4 ^b | – | 12.2 | 380 ± 22 nM | 4660 ± 2690 nM | Ki D1R (D1R [5]): inactive
Oc1cccc(C(O)CNCc2cccc(Cl)c2Cl)c1 (centres unmarked) [Compound 4] | 0.90 ± 0.31 | 2.75 ± 0.61 | 0.90 ± 0.39 | – | – | >27.2 ^b | >27.2 ^b | 3680 ± 940 nM | – | Ki D1R (D1R [5]): inactive; also recorded: no determinable binding affinity; also recorded: no determinable binding affinities; Ki D2R (D2R [6]; [12]): inactive; also recorded: no determinable binding affinity; also recorded: no determinable binding affinities
CCN(CCC(=O)Nc1cccc(OC)c1)Cc1ccccc1 [Compound 5] | 1.26 ± 0.64 | 2.65 ± 0.64 | 15.74 ± 18.15 | 46900 ± 27400 nM | 4.28 | 20.8 | 4.86 | 2250 ± 910 nM | 11000 ± 4430 nM | –
O=C(CCN1CCN(c2ccccc2F)CC1)Nc1cccc(F)c1 [Compound 6] | 2.15 ± 1.16 | 4.21 ± 0.79 | 8.18 ± 3.62 | 7760 ± 4410 nM | 5.77 | 20.7 | 3.56 | 370 ± 280 nM | 1350 ± 630 nM | –
O[C@H](CNCCNc1ccc(C(F)(F)F)cn1)CSc1ccc(F)cc1 [Compound 7] | 1.57 ± 0.54 | 3.79 ± 0.70 | 10.85 ± 4.93 | 8330 ± 2170 nM | 3.00 | 12.3 | 4.11 | 680 ± 68 nM | 2780 ± 1060 nM | –
COc1cc(CC[C@H](C)NCc2ccccc2)ccc1O [Compound 8] | 1.20 ± 0.59 | 2.63 ± 0.52 | 1.10 ± 0.52 | – | – | >43.1 ^b | >43.1 ^b | 2320 ± 920 nM | – | Ki D1R (D1R [5]): inactive; also recorded: no determinable binding affinity; also recorded: no determinable binding affinities; Ki D2R (D2R [6]; [12]): inactive; also recorded: no determinable binding affinity; also recorded: no determinable binding affinities
NC(=O)c1ccccc1OCCCN1CCN(c2ccccc2)CC1 [Compound 9] | 1.71 ± 0.86 | 3.97 ± 0.78 | 22.08 ± 6.62 | 9460 ± 1180 nM | 28.6 | 395.1 | 13.8 | 24 ± 3 nM | 330 ± 93 nM | –
COc1ccccc1N1CCN(CCCCNC(=O)c2ccc(Cl)cc2)CC1 [Compound 10] | 2.59 ± 1.04 | 4.09 ± 1.07 | 22.89 ± 8.41 | 2380 ± 130 nM | 3.91 | 1031.4 | 263.7 | 2 ± 1 nM | – | Ki (D2R [6]; [12]): 610 ± 85 nM; Ki (D3R [7]): 2.3 nM
SC79 | – | – | – | – | – | – | – | – | – | Ki (D1R [9]; [13]): 10000 nM; Ki (D2R [10]; [13]): 622 nM; Ki (D3R [11]; [13]): 6.11 nM
SC144 | – | – | – | – | – | – | – | – | – | Ki (D1R [9]; [13]): 1300 nM; Ki (D2R [10]; [13]): 38 nM; Ki (D3R [11]; [13]): 3 nM
SC236 | – | – | – | – | – | – | – | – | – | Ki (D1R [9]; [14]): 1270 nM; Ki (D2R [10]; [14]): 2320 nM; Ki (D3R [11]; [14]): 214 nM

From PMC10216180, “Dopamine Receptor Ligand Selectivity—An In Silico/In Vitro Insight” (Biomedicines, 2023)
